The results in this text go back to US7223424B2, “Compositions and methods for prostate and kidney health and disorders, an herbal preparation” (Integrated Chinese Medicine Holdings, Ltd., priority 2001, dated 2007).

The assay has as its system person with enlarged prostate. In words: Case report: person with enlarged prostate and frequent urination. The settings on record: prescribed for enlarged prostate. The assay is classed as in vivo, human. The text has this:
Person diagnosed with having an enlarged prostate suffered from frequent-urination problems including increased daily frequency and reduced volume. They had the urge to urinate every two hours and the amount was only a few drops. Their symptoms were attributed to old age. […] They are able to urinate what they consider a normal amount of urine in a steady stream as opposed to the dribbling they experienced prior to taking the 9-herb composition. […] Because they are sleeping better, they have more energy throughout the day.

Regarding `CC(C)(C)NC(=O)[C@H]1CC[C@H]2[C@@H]3CC[C@H]4NC(=O)C=C[C@]4(C)[C@H]3CC[C@]12C` [PROSCAR], the urination problem entry was “did not alleviate the urination problem”.
